Assay [1] concerns the target XIAP BIR3 (His-BIR3 (241-356, XIAP)) (Homo sapiens (Human), UniProt P98170). Briefly: XIAP-BIR3/SMAC Homogeneous Time Resolved Fluorescence (HTRF) Assay. It is filed as binding. The settings on record: 1 nM N-His-BIR3, 5 nM fluorescein labeled SMAC peptide; read-out: XIAP BIR3 FRET IC50. On the technique in general: TR-FRET usually uses a lanthanide donor and a delayed reading to cut background.

The target in assay [2] is XIAP BIR2-3 (His-BIR2-3 (125-356, C202A/C213G, XIAP)) (Homo sapiens (Human), UniProt P98170, C202A/C213G). Briefly: XIAP-BIR2-3 Dimeric SMAC Peptide Homogeneous Time Resolved Fluorescence (HTRF) Assay. It is filed as binding. The settings on record: 0.5 nM N-His-BIR2-3, 20 nM fluorescein labeled dimeric SMAC peptide; read-out: XIAP BIR2-3 FRET IC50.
Chain of XIAP BIR2-3 (His-BIR2-3 (125-356, C202A/C213G, XIAP)) (P98170 125-356 C202A/C213G): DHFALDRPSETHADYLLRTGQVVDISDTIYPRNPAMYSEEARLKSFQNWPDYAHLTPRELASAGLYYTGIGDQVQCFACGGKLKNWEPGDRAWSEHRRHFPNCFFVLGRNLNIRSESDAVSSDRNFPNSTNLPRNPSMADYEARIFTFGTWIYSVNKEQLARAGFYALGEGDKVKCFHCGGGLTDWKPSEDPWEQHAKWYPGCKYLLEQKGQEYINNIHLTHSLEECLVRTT

Chain of XIAP BIR3 (His-BIR3 (241-356, XIAP)) (P98170 241-356): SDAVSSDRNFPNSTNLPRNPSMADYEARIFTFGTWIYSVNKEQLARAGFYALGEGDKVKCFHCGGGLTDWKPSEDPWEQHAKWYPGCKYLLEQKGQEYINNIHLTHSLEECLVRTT

In general, IC50 refers to the concentration that inhibits the measured activity by half. For `CN[C@@H](C)C(=O)N[C@H](C(=O)N1CC[C@@H]2[C@H]1C(=O)N[C@@H](Cc1ccc3ccccc3c1)C(=O)N[C@H](C(=O)O)Cc1ccc(cc1)OCc1cn(nn1)[C@@H]1CCN(C(=O)[C@@H](NC(=O)[C@H](C)NC)C(C)(C)C)[C@@H]1C(=O)N[C@@H](Cc1ccc3ccccc3c1)C(=O)N[C@H](c1nnn[nH]1)Cc1ccc(cc1)OCc1cn2nn1)C(C)(C)C` (single isomer, unassigned) [Example 15], the IC50 in assay [1] amounted to 1.9 nM; in assay [2], 0.3 nM.

Take `CN[C@@H](C)C(=O)N[C@H](C(=O)N1CC[C@@H]2[C@H]1C(=O)N[C@@H](Cc1ccc3ccccc3c1)C(=O)N[C@H](C(=O)O)Cc1ccc(cc1)OCc1cn(nn1)[C@@H]1CCN(C(=O)[C@@H](NC(=O)[C@H](C)NC)C(C)(C)C)[C@@H]1C(=O)N[C@@H](Cc1ccc3ccccc3c1)C(=O)N[C@H](c1nnn[nH]1)Cc1ccc(cc1)OCc1cn2nn1)C(C)(C)C` (single isomer, unassigned) [Example 16]: the values for the IC50 in assay [1] and in assay [2] were 4.4 nM and 2.2 nM, respectively.

As for `CN[C@@H](C)C(=O)N[C@H](C(=O)N1CC[C@@H]2[C@H]1C(=O)N[C@@H](Cc1ccc3ccccc3c1)C(=O)N[C@H](C(=O)O)Cc1ccc(cc1)OCc1cn(nn1)[C@@H]1CCN(C(=O)[C@@H](NC(=O)[C@H](C)NC)C(C)(C)C)[C@@H]1C(=O)N[C@@H](Cc1ccc3ccccc3c1)C(=O)N[C@H](C(=O)O)c1ccc(cc1)OCc1cn2nn1)C(C)(C)C` [Example 1], the IC50 turned out to be 4.9 nM in assay [1] and 1.1 nM in assay [2].

On to `CN[C@@H](C)C(=O)N[C@H](C(=O)N1CC[C@H]2OCc3cn(nn3)CCC[C@H](C(=O)O)NC(=O)[C@H](Cc3ccc4ccccc4c3)NC(=O)[C@@H]3[C@@H](CCN3C(=O)[C@@H](NC(=O)[C@H](C)NC)C(C)(C)C)OCc3cn(nn3)CCC[C@H](C(=O)O)NC(=O)[C@H](Cc3ccc4ccccc4c3)NC(=O)[C@H]21)C(C)(C)C` [Example 3], for which the figures for the half-inhibitory concentration (IC50) in assay [1] and in assay [2] were 1.9 nM and 0.8 nM, respectively.

On to `CN[C@@H](C)C(=O)N[C@H](C(=O)N1CC[C@H]2OCc3cn(nn3)[C@H](C(=O)O)CCNC(=O)[C@H](Cc3ccc4ccccc4c3)NC(=O)[C@@H]3[C@@H](CCN3C(=O)[C@@H](NC(=O)[C@H](C)NC)C(C)(C)C)OCc3cn(nn3)[C@H](C(=O)O)CCNC(=O)[C@H](Cc3ccc4ccccc4c3)NC(=O)[C@H]21)C(C)(C)C` [Example 4], for which the results for the IC50 in assay [1] and in assay [2] were 57.8 nM and 1.6 nM, respectively.

For the molecule `CN[C@@H](C)C(=O)N[C@H](C(=O)N1CC[C@@H]2[C@H]1[C@@H](Cc1ccc3ccccc3c1)C(=O)N[C@H](C(=O)O)Cc1ccc(cc1)OCc1cn(nn1)[C@@H]1CCN(C(=O)[C@@H](NC(=O)[C@H](C)NC)C(C)(C)C)[C@@H]1C(=O)C[C@@H](Cc1ccc3ccccc3c1)C(=O)N[C@H](C(=O)OC)Cc1ccc(cc1)OCc1cn2nn1)C(C)(C)C` [Example 7], the IC50 in assay [1] was 29 nM; in assay [2], 6.5 nM.

`CN[C@@H](C)C(=O)N[C@H](C(=O)N1CC[C@@H]2[C@H]1C(=O)N[C@@H](Cc1ccc3ccccc3c1)C(=O)N[C@H](C(=O)O)Cc1ccc(cc1)OCc1cn(nn1)[C@@H]1CCN(C(=O)[C@@H](NC(=O)[C@H](C)NC)C(C)(C)C)[C@@H]1C(=O)N[C@@H](Cc1ccc3ccccc3c1)C(=O)N[C@H](C(=O)NS(=O)(=O)c1ccccn1)Cc1ccc(cc1)OCc1cn2nn1)C(C)(C)C` [Example 10]: the figures for the 50% inhibitory concentration (IC50) in assay [1] and in assay [2] were 63.1 nM and 16.9 nM, respectively.

In the case of `CN[C@@H](C)C(=O)N[C@H](C(=O)N1CC[C@@H]2[C@H]1C(=O)N[C@@H](Cc1ccc3ccccc3c1)C(=O)N[C@H](C(=O)O)Cc1ccc(cc1)OCc1cn(nn1)[C@@H]1CCN(C(=O)[C@@H](NC(=O)[C@H](C)NC)C(C)(C)C)[C@@H]1C(=O)N[C@@H](Cc1ccc3ccccc3c1)C(=O)N[C@H](C(=O)NS(=O)(=O)C1CC1)Cc1ccc(cc1)OCc1cn2nn1)C(C)(C)C` [Example 11], the values for the IC50 in assay [1] and in assay [2] were 10.3 nM and 1.3 nM, respectively.

As to `CN[C@@H](C)C(=O)N[C@H](C(=O)N1CC[C@@H]2[C@H]1C(=O)NC(=O)C[C@@H](Cc1ccc3ccccc3c1)C(=O)N[C@H](C(=O)O)Cc1ccc(cc1)OCc1cn(nn1)[C@@H]1CCN(C(=O)[C@@H](NC(=O)[C@H](C)NC)C(C)(C)C)[C@@H]1C(=O)N[C@@H](Cc1ccc3ccccc3c1)C(=O)N[C@H](c1n[nH]c(=O)o1)Cc1ccc(cc1)OCc1cn2nn1)C(C)(C)C` [Example 14], the IC50 is 8.6 nM in assay [1] and 1.3 nM in assay [2].

For the molecule `CN[C@@H](C)C(=O)N[C@H](C(=O)N1CC[C@@H]2[C@H]1C(=O)N[C@@H](Cc1ccc3ccccc3c1)C(=O)N[C@H](C(=O)O)Cc1ccc(cc1)OCc1cn(nn1)[C@@H]1CCN(C(=O)[C@@H](NC(=O)[C@H](C)NC)C(C)(C)C)[C@@H]1C(=O)N[C@@H](Cc1ccc3ccccc3c1)C(=O)N[C@H](c1nc(=S)o[nH]1)Cc1ccc(cc1)OCc1cn2nn1)C(C)(C)C` [Example 17], the IC50 worked out at 3.2 nM in assay [1] and 0.8 nM in assay [2].

`CN[C@@H](C)C(=O)N[C@H](C(=O)N1CC[C@@H]2[C@H]1C(=O)N[C@@H](Cc1ccc3ccccc3c1)C(=O)N[C@H](C(=O)O)Cc1ccc(cc1)OCc1cn(nn1)[C@@H]1CCN(C(=O)[C@@H](NC(=O)[C@H](C)NC)C(C)(C)C)[C@@H]1C(=O)N[C@@H](Cc1ccc3ccccc3c1)C(=O)N[C@H](c1nc(=S)o[nH]1)Cc1ccc(cc1)OCc1cn2nn1)C(C)(C)C` [Example 18]: the IC50 in assay [2] stood at 2.2 nM.

As for `CN[C@@H](C)C(=O)N[C@H](C(=O)N1CC[C@@H]2[C@H]1C(=O)N[C@@H](Cc1ccc3ccccc3c1)C(=O)N[C@H](C(=O)O)Cc1ccc(cc1)OCc1cn(nn1)[C@@H]1CCN(C(=O)[C@@H](NC(=O)[C@H](C)NC)C(C)(C)C)[C@@H]1C(=O)N[C@@H](Cc1ccc3ccccc3c1)C(=O)N[C@H](c1nc(=O)o[nH]1)Cc1ccc(cc1)OCc1cn2nn1)C(C)(C)C` [Example 19], the figures for the IC50 in assay [1] and in assay [2] were 2 nM and 0.4 nM, respectively.

For the molecule `CN[C@@H](C)C(=O)N[C@H](C(=O)N1CC[C@@H]2[C@H]1C(=O)N[C@@H](Cc1ccc3ccccc3c1)C(=O)N[C@H](C(=O)O)Cc1ccc(cc1)OCc1cn(nn1)[C@@H]1CCN(C(=O)[C@@H](NC(=O)[C@H](C)NC)C(C)(C)C)[C@@H]1C(=O)N[C@@H](Cc1ccc3ccccc3c1)C(=O)N[C@H](c1nc(=O)o[nH]1)Cc1ccc(cc1)OCc1cn2nn1)C(C)(C)C` [Example 20], the values for the IC50 in assay [1] and in assay [2] were 10.1 nM and 2.9 nM, respectively.

(Values after patent US9605022B2, “Macrocyclic compounds for inhibition of inhibitors of apoptosis” (Ensemble Therapeutics Corporation, priority 2012, dated 2017).)
